PubChem BioAssay AID248 (DTP/NCI, 2004)
“And” between values parts separate entries of the source, which are not always exact repeats. Equal entries are not always repeated. Toxic doses and inconclusive results are not listed. Cut-off read from the data, not from the text of the source: active = T/C of 150% or more; inactive = T/C below 125%.

Test system: L1210 leukemia ip in BDF1 mice, survival T/C
Assay: NCI In Vivo Anticancer Drug Screen. Data for tumor model L1210 Leukemia (intraperitoneal) in B6D2F1 (BDF1) mice
Details: endpoint: mean survival time, higher = longer survival
How it was run: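 Mice bearing the transplanted tumor received compound or vehicle. Survival of the treated group was divided by that of the vehicle-treated control group to give the ratio.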

[1] = dose: 100.0 mg/kg/injection, schedule: Q04DX002 (ip), vehicle: saline with Tween-80
[2] = dose: 200.0 mg/kg/injection, schedule: Q04DX002 (ip), vehicle: saline with Tween-80
[3] = dose: 100.0 mg/kg/injection, schedule: Q04DX003 (ip), vehicle: saline with Tween-80
[4] = dose: 200.0 mg/kg/injection, schedule: Q04DX003 (ip), vehicle: saline with Tween-80
[5] = dose: 400.0 mg/kg/injection, schedule: Q04DX003 (ip), vehicle: saline with Tween-80
[6] = dose: 100.0 mg/kg/injection, schedule: Q04DX002 (ip), vehicle: Klucel (hydroxypropylcellulose) (HPC)
[7] = dose: 200.0 mg/kg/injection, schedule: Q04DX002 (ip), vehicle: Klucel (hydroxypropylcellulose) (HPC)
[8] = dose: 400.0 mg/kg/injection, schedule: Q04DX002 (ip), vehicle: Klucel (hydroxypropylcellulose) (HPC)
[9] = dose: 50.0 mg/kg/injection, schedule: Q01DX009 (ip), vehicle: saline with Tween-80
[10] = dose: 100.0 mg/kg/injection, schedule: Q01DX001 (ip), vehicle: saline
[11] = dose: 200.0 mg/kg/injection, schedule: Q01DX001 (ip), vehicle: saline
[12] = dose: 400.0 mg/kg/injection, schedule: Q01DX001 (ip), vehicle: saline
[13] = dose: 100.0 mg/kg/injection, schedule: Q04DX003 (ip), vehicle: saline
[14] = dose: 200.0 mg/kg/injection, schedule: Q04DX003 (ip), vehicle: saline
[15] = dose: 400.0 mg/kg/injection, schedule: Q04DX003 (ip), vehicle: saline
[16] = dose: 100.0 mg/kg/injection, schedule: Q01DX009 (ip), vehicle: saline with Tween-80
[17] = dose: 200.0 mg/kg/injection, schedule: Q01DX009 (ip), vehicle: saline with Tween-80
[18] = dose: 400.0 mg/kg/injection, schedule: Q01DX009 (ip), vehicle: saline with Tween-80
[19] = dose: 100.0 mg/kg/injection, schedule: Q04DX003 (ip), vehicle: Klucel (hydroxypropylcellulose) (HPC)
[20] = dose: 200.0 mg/kg/injection, schedule: Q04DX003 (ip), vehicle: Klucel (hydroxypropylcellulose) (HPC)
[21] = dose: 400.0 mg/kg/injection, schedule: Q04DX003 (ip), vehicle: Klucel (hydroxypropylcellulose) (HPC)
[22] = dose: 100.0 mg/kg/injection, schedule: Q04DX002 (ip), vehicle: saline
[23] = dose: 200.0 mg/kg/injection, schedule: Q04DX002 (ip), vehicle: saline
[24] = dose: 400.0 mg/kg/injection, schedule: Q04DX002 (ip), vehicle: saline

Measured: T/C

COc1cc(C2=N/C(=C\C=C\c3ccccc3)C(=O)O2)cc(OC)c1OC
inactive: [1] 95 % of control | [2] 95 % of control | dose: 400.0 mg/kg/injection, schedule: Q04DX002 (ip), vehicle: saline with Tween-80 95 % of control

C/C=C\C=C\C(=O)OC
inactive: [3] 99 % of control | [4] 89 % of control | [5] 92 % of control

N#CSCC1OCC(C(O)C(O)C2COC(CSC#N)O2)O1 (stereo not given)
inactive: [6] 95 % of control | [7] 98 % of control | [8] 95 % of control

NC1=C(Cl)C(=O)C(N)=C(Cl)C1=O
inactive: [3] 98 % of control | [4] 98 % of control | [5] 88 % of control

Cc1[nH]nc(C(F)(F)F)c1N=NN1CCC(C(N)=O)CC1
inactive: dose: 75.0 mg/kg/injection, schedule: Q01DX001 (ip), vehicle: carboxymethylcellulose (CMC) 95 % of control

C(=C(CC1CCC1)CC1CCC1)C1CCC1
inactive: [1] 96 % of control | [2] 90 % of control

OCSCc1c(Cl)c(Cl)c(Cl)c(Cl)c1Cl
inactive: [6] 103 % of control | [7] 103 % of control | [8] 98 % of control

CN/N=C/c1ccccc1
inactive: dose: 12.5 mg/kg/injection, schedule: Q01DX009 (ip), vehicle: saline with Tween-80 102 % of control | dose: 25.0 mg/kg/injection, schedule: Q01DX009 (ip), vehicle: saline with Tween-80 107 % of control | [9] 97 % of control and 112 % of control | [1] 95 % of control | [2] 92 % of control

O=[N+]([O-])c1ccc2[nH]c(O)c(N=Nc3ccccc3[N+](=O)[O-])c2c1
inactive: [10] 98 % of control | [11] 96 % of control | [12] 105 % of control

Cc1noc(-n2c(C)ccc2C)c1C
inactive: [13] 97 % of control | [14] 100 % of control | [15] 95 % of control

O=C1NC(c2ccc(F)cc2)OC1C(=O)c1ccccc1 (stereo not given)
inactive: [10] 104 % of control | [11] 110 % of control | [12] 104 % of control

CCOC(=O)Cc1ccccc1
inactive: [16] 97 % of control | dose: 175.0 mg/kg/injection, schedule: Q04DX003 (ip), vehicle: saline with Tween-80 91 % of control | [17] 104 % of control | dose: 265.0 mg/kg/injection, schedule: Q04DX003 (ip), vehicle: saline with Tween-80 106 % of control | [18] 99 % of control

O=S(=O)(O)c1cc(Cl)cc(N=Nc2ccc(O)cc2O)c1O
inactive: dose: 50.0 mg/kg/injection, schedule: Q01DX001 (ip), vehicle: saline 98 % of control | [10] 98 % of control | [11] 104 % of control | [12] 98 % of control

COc1ccc(OC)c(NC(=O)Nc2nccs2)c1
inactive: dose: 100.0 mg/kg/injection, schedule: Q01DX001 (ip), vehicle: Klucel (hydroxypropylcellulose) (HPC) 95 % of control | dose: 100.0 mg/kg/injection, schedule: Q01DX009 (ip), vehicle: Klucel (hydroxypropylcellulose) (HPC) 97 % of control | [6] 97 % of control and 98 % of control | [19] 96 % of control and 122 % of control | dose: 200.0 mg/kg/injection, schedule: Q01DX001 (ip), vehicle: Klucel (hydroxypropylcellulose) (HPC) 90 % of control | dose: 200.0 mg/kg/injection, schedule: Q01DX009 (ip), vehicle: Klucel (hydroxypropylcellulose) (HPC) 88 % of control | [7] 96 % of control and 90 % of control | [20] 100 % of control | dose: 400.0 mg/kg/injection, schedule: Q01DX001 (ip), vehicle: Klucel (hydroxypropylcellulose) (HPC) 95 % of control | dose: 400.0 mg/kg/injection, schedule: Q01DX009 (ip), vehicle: Klucel (hydroxypropylcellulose) (HPC) 91 % of control | [8] 96 % of control and 101 % of control | [21] 102 % of control and 116 % of control

CCS(=O)(=O)c1ccc(NC(=O)Oc2cc(C)ccc2C(C)C)cc1
inactive: dose: 100.0 mg/kg/injection, schedule: Q01DX001 (ip), vehicle: carboxymethylcellulose (CMC) 91 % of control | dose: 200.0 mg/kg/injection, schedule: Q01DX001 (ip), vehicle: carboxymethylcellulose (CMC) 96 % of control | dose: 400.0 mg/kg/injection, schedule: Q01DX001 (ip), vehicle: carboxymethylcellulose (CMC) 94 % of control

Cc1ccc(C)c(Cl)c1Cl
inactive: dose: 75.0 mg/kg/injection, schedule: Q01DX009 (ip), vehicle: saline sonified 98 % of control | [13] 103 % of control | dose: 150.0 mg/kg/injection, schedule: Q01DX009 (ip), vehicle: saline sonified 103 % of control | [14] 108 % of control | dose: 300.0 mg/kg/injection, schedule: Q01DX009 (ip), vehicle: saline sonified 99 % of control | [15] 103 % of control

O=S(=O)(Nc1ccc(O)c(Cl)c1)c1ccccc1
inactive: [16] 100 % of control | [17] 103 % of control | [18] 95 % of control

CCCC(CCC)NC(=O)c1ccccc1
inactive: dose: 25.0 mg/kg/injection, schedule: Q04DX002 (ip), vehicle: saline with Tween-80 104 % of control | dose: 50.0 mg/kg/injection, schedule: Q04DX002 (ip), vehicle: saline with Tween-80 95 % of control | [1] 95 % of control

NC(N)=N/N=C/c1ccc(O)c(C(=O)O)c1
inactive: dose: 15.0 mg/kg/injection, schedule: Q01DX Z (ip), vehicle: methylcellulose (MC) 92 % of control | dose: 30.0 mg/kg/injection, schedule: Q01DX Z (ip), vehicle: methylcellulose (MC) 94 % of control | dose: 60.0 mg/kg/injection, schedule: Q01DX Z (ip), vehicle: methylcellulose (MC) 106 % of control | dose: 60.0 mg/kg/injection, schedule: Q01DX Z (oral), vehicle: methylcellulose (MC) 108 % of control | dose: 120.0 mg/kg/injection, schedule: Q01DX Z (ip), vehicle: methylcellulose (MC) 88 % of control | dose: 120.0 mg/kg/injection, schedule: Q01DX Z (oral), vehicle: methylcellulose (MC) 113 % of control | dose: 250.0 mg/kg/injection, schedule: Q01DX Z (oral), vehicle: methylcellulose (MC) 89 % of control

NP1(N)=NP(N)(N)=NP(N)(N)=N1
inactive: [22] 90 % of control | [23] 93 % of control | [24] 97 % of control

NCC(c1ccccc1)c1ccccc1
inactive: dose: 1.25 mg/kg/injection, schedule: Q01DX009 (ip), vehicle: saline 103 % of control | dose: 12.5 mg/kg/injection, schedule: Q04DX003 (ip), vehicle: saline 98 % of control | dose: 25.0 mg/kg/injection, schedule: Q01DX009 (ip), vehicle: saline 98 % of control | dose: 25.0 mg/kg/injection, schedule: Q04DX003 (ip), vehicle: saline 98 % of control | dose: 50.0 mg/kg/injection, schedule: Q01DX009 (ip), vehicle: saline 95 % of control | dose: 50.0 mg/kg/injection, schedule: Q04DX003 (ip), vehicle: saline 102 % of control

CCCCN(CCCC)CP(=S)(CN(CCCC)CCCC)CN(CCCC)CCCC
inactive: [19] 104 % of control | [20] 104 % of control | [21] 107 % of control

CCOC(=O)NCC(CCCN1CCOCC1)(c1cccc2ccccc12)C(C)CC (stereo not given)
inactive: [22] 102 % of control | [23] 106 % of control | [24] 97 % of control

COc1ccc(C(=O)CC(c2ccc3c(c2)OCO3)c2c(O)c3ccccc3oc2=O)cc1OC (stereo not given)
inactive: [9] 97 % of control | [16] 96 % of control | [3] 94 % of control | [17] 92 % of control | [4] 102 % of control | [18] 87 % of control | [5] 89 % of control

CCP(=S)(CC)CCCCP(=S)(CC)CC
inactive: [16] 94 % of control | [17] 89 % of control | [18] 86 % of control
